In US20260325533A1, “CDK INHIBITOR COMPOUNDS” (ALEKSIA THERAPEUTICS, INC., priority 2023, published 2026) one finds IC50 data, which are given here for 21 compounds.

Structures are written as SMILES. Where two headings read alike, the source gives them in different places.

Format in all cases: biochemical
One test addresses CDK2/CCNE1 (Homo sapiens, UniProt P24941). Kind of test: CDK2 homogeneous time-resolved fluorescence (HTRF) kinase assay. As to conditions: CDK2/CCNE. In a few lines: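 CDK2/CCNE1 (3 nM) preincubated 20 min at 23 °C with compound, then reacted 60 min at 23 °C with 1 mM ATP and 50 nM ULight-4E-BP1 (Thr37/46) peptide. Stopped with EDTA, phospho-peptide detected by Eu-anti-phospho antibody (665 nm or 665/615 ratio). IC50 from 11-point half-log titrations typically starting at 10 μM.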
A general note: TR-FRET usually uses a lanthanide donor and a delayed reading to cut background.

A further test deals with CDK4/CCND3 (Homo sapiens, UniProt P11802). Put plainly: CDK4 homogeneous time-resolved fluorescence (HTRF) kinase assay. As to conditions: CDK4/CCND. In a few lines: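 Inhibition of CDK4/CCND3 (1.5 nM) was measured at high ATP (1 mM) using 50 nM ULight-labelled 4E-BP1 Thr37/46 peptide; detection used 2 nM europium anti-phospho antibody after EDTA quench. IC50 values came from 11-point half-log titrations typically starting at 10 μM.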
Chain of CDK4/CCND3 (P11802 whole entry): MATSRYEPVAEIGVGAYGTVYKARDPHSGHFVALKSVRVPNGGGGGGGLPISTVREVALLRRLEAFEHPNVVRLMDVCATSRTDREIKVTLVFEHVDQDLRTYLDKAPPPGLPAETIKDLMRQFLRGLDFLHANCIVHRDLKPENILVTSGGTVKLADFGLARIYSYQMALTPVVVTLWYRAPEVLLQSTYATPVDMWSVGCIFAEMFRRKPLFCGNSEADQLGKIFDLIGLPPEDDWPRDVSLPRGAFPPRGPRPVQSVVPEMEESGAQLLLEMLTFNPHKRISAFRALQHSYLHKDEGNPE
Chain of CDK4/CCND3 (P30281 whole entry partner): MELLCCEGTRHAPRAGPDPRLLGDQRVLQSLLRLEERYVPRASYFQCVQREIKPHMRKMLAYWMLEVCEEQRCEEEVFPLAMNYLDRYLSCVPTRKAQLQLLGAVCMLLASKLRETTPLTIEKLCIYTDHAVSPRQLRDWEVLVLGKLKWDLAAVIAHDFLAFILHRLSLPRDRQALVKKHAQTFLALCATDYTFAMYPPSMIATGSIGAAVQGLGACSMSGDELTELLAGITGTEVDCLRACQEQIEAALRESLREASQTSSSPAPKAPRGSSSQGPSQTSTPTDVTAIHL

The target in the next test is CDK6/CCND1 (Homo sapiens, UniProt Q00534). Put plainly: CDK6 homogeneous time-resolved fluorescence (HTRF) kinase assay. As to conditions: CDK6/CCND. The method in brief:
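1 nM enzyme, 1 mM ATP, 50 nM ULight-4E-BP1 (Thr37/46) peptide, 1% DMSO; 20 min compound preincubation, 60 min reaction, 23 °C. EDTA stop, 2 nM Eu-anti-phospho-4E-BP1 antibody 60 min. TR-FRET 665 nm (or 665/615 ratio); IC50 from 11-point half-log titration, top 10 μM.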

Another test deals with CDK1/CCNB1 (Homo sapiens, UniProt P06493). Kind of test: CDK1 homogeneous time-resolved fluorescence (HTRF) kinase assay. The following applies: CDK1/CCNB. In a few lines: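 Read-out: TR-FRET (Eu anti-phospho-4E-BP1 Thr37/46 antibody, 2 nM; 665 nm or 665/615 ratio) after 60 min phosphorylation of 50 nM ULight-peptide by 0.5 nM CDK1/CCNB1 at 1 mM ATP, 23 °C. Compound preincubated 20 min with enzyme; 1% DMSO.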
Chain of CDK1/CCNB1 (P06493 whole entry): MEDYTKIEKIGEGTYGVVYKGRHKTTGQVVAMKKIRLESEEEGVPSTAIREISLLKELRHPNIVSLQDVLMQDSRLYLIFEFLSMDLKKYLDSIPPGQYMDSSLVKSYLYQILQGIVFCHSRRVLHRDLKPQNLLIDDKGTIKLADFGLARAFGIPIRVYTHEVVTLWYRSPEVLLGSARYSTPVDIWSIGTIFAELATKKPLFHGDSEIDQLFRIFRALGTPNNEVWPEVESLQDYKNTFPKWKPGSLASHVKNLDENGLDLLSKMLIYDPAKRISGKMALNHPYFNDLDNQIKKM
Chain of CDK1/CCNB1 (P14635 whole entry partner): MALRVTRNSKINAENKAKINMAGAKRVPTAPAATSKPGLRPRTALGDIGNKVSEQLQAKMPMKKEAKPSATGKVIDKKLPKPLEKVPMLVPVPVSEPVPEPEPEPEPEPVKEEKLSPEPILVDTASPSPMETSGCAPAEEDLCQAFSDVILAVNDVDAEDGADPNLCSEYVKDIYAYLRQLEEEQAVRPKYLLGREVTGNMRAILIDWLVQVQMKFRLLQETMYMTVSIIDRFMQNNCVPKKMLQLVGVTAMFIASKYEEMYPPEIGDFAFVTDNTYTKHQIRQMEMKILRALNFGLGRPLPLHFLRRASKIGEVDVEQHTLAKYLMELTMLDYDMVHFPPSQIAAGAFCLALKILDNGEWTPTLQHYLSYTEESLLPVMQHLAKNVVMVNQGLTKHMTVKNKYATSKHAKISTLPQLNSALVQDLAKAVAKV

[1] abbreviates: x = IC50 <25 nM, read-out: CDK2/CCNE IC50 (<25 nM).
Setting [2] is: x = IC50 >250 nM, read-out: CDK4/CCND IC50 (>250 nM column).
Setting [3] is: x = IC50 >250 nM, read-out: CDK6/CCND IC50 (>250 nM column).
[4] abbreviates: x = IC50 >250 nM, read-out: CDK1/CCNB IC50 (>250 nM column).
Where [5] appears, read: x = IC50 25-250 nM, read-out: CDK2/CCNE IC50 (25-250 nM).
[6] abbreviates: x = IC50 25-250 nM, read-out: CDK4/CCND IC50 (25-250 nM).

Chain of CDK6/CCND1 (Q00534 whole entry): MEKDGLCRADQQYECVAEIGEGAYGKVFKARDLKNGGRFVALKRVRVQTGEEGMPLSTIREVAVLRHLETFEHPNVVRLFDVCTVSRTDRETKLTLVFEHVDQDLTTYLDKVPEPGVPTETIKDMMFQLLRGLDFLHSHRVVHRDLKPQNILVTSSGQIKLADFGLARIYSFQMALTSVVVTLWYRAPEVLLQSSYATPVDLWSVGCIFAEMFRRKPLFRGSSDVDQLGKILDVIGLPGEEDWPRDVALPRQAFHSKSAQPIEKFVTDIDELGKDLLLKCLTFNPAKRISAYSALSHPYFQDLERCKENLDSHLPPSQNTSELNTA
Chain of CDK6/CCND1 (P24385 whole entry partner): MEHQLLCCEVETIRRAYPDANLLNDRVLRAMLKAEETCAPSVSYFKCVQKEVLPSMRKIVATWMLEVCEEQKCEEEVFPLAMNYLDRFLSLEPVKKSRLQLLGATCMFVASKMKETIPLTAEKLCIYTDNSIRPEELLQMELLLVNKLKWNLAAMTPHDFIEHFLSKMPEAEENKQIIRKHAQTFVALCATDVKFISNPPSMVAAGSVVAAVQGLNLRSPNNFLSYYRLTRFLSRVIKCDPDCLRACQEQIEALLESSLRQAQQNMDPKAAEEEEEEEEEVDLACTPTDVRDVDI

As for `CS(=O)(=O)c1ccc(Nc2cc3c(C#Cc4ccc(=O)[nH]n4)nccc3cn2)cc1` [Ex 618, 6-((7-((4-(methylsulfonyl)phenyl)amino)-2,6-naphthyridin-1-yl)ethynyl)pyridazin-3(2H)-one], the IC50 at CDK2/CCNE1 (setting [1]) was less than 25 nM; at CDK4/CCND3 (setting [2]), greater than 250 nM; on CDK6/CCND1 (setting [3]), greater than 250 nM; on CDK1/CCNB1 (setting [4]), greater than 250 nM.

As to `CS(=O)(=O)c1ccc(Nc2cc3c(C#Cc4ccc(CC#N)cc4)nccc3cn2)cc1` [Ex 620, 2-(4-((7-((4-(methylsulfonyl)phenyl)amino)-2,6-naphthyridin-1-yl)ethynyl)phenyl)acetonitrile], the IC50 on CDK2/CCNE1 (setting [5]) was 25 to 250 nM; at CDK4/CCND3 (setting [2]), greater than 250 nM; on CDK6/CCND1 (setting [3]), greater than 250 nM; at CDK1/CCNB1 (setting [4]), greater than 250 nM.

In the case of `CS(=O)(=O)c1ccc(Nc2cc3c(C#Cc4cccc5cn[nH]c45)nccc3cn2)cc1` [Ex 621, 5-((1H-indazol-7-yl)ethynyl)-N-(4-(methylsulfonyl)phenyl)-2,6-naphthyridin-3-amine], the IC50 was 25 to 250 nM at CDK2/CCNE1 (setting [5]), greater than 250 nM at CDK4/CCND3 (setting [2]), greater than 250 nM at CDK6/CCND1 (setting [3]) and greater than 250 nM on CDK1/CCNB1 (setting [4]).

As to `CS(=O)(=O)c1ccc(Nc2cc3c(C#Cc4cnc(N)cn4)nccc3cn2)cc1` [Ex 622, 5-((5-aminopyrazin-2-yl)ethynyl)-N-(4-(methylsulfonyl)phenyl)-2,6-naphthyridin-3-amine], the IC50 was 25 to 250 nM on CDK2/CCNE1 (setting [5]), greater than 250 nM at CDK4/CCND3 (setting [2]), greater than 250 nM at CDK6/CCND1 (setting [3]) and greater than 250 nM on CDK1/CCNB1 (setting [4]).

For the compound `CS(=O)(=O)c1ccc(Nc2cc3c(C#Cc4cccnc4)nccc3cn2)cc1` [Ex 623, N-(4-(methylsulfonyl)phenyl)-5-(pyridin-3-ylethynyl)-2,6-naphthyridin-3-amine], the IC50 is 25 to 250 nM at CDK2/CCNE1 (setting [5]), greater than 250 nM at CDK4/CCND3 (setting [2]), greater than 250 nM at CDK6/CCND1 (setting [3]) and greater than 250 nM on CDK1/CCNB1 (setting [4]).

On to `CN1Cc2cc(-c3nccc4cnc(Nc5ccc(S(C)(=O)=O)cc5)cc34)ccc2C1=O` [Ex 624, 2-methyl-5-(7-((4-(methylsulfonyl)phenyl)amino)-2,6-naphthyridin-1-yl)isoindolin-1-one], for which the IC50 is 25 to 250 nM on CDK2/CCNE1 (setting [5]), greater than 250 nM at CDK4/CCND3 (setting [2]), greater than 250 nM at CDK6/CCND1 (setting [3]) and greater than 250 nM on CDK1/CCNB1 (setting [4]).

With `CS(=O)(=O)c1ccc(Nc2cc3c(C#Cc4ccc(O)cn4)nccc3cn2)cc1` [Ex 627, 6-((7-((4-(methylsulfonyl)phenyl)amino)-2,6-naphthyridin-1-yl)ethynyl)pyridin-3-ol], the IC50 on CDK2/CCNE1 (setting [5]) was 25 to 250 nM; at CDK4/CCND3 (setting [2]), greater than 250 nM; at CDK6/CCND1 (setting [3]), greater than 250 nM; on CDK1/CCNB1 (setting [4]), greater than 250 nM.

`CC(=O)Nc1ccc(C#Cc2nccc3cnc(Nc4ccc(S(C)(=O)=O)cc4)cc23)cc1` [Ex 631, N-(4-((7-((4-(methylsulfonyl)phenyl)amino)-2,6-naphthyridin-1-yl)ethynyl)phenyl)acetamide]: the IC50 on CDK2/CCNE1 (setting [1]) is less than 25 nM; at CDK4/CCND3 (setting [2]), greater than 250 nM; at CDK6/CCND1 (setting [3]) it was greater than 250 nM; on CDK1/CCNB1 (setting [4]) it was greater than 250 nM.

As for `CS(=O)(=O)c1ccc(Nc2cc3c(C#Cc4cnc(N)nc4)nccc3cn2)cc1` [Ex 633, 5-((2-aminopyrimidin-5-yl)ethynyl)-N-(4-(methylsulfonyl)phenyl)-2,6-naphthyridin-3-amine], the IC50 at CDK2/CCNE1 (setting [5]) was 25 to 250 nM; on CDK4/CCND3 (setting [2]), greater than 250 nM; on CDK6/CCND1 (setting [3]), greater than 250 nM; on CDK1/CCNB1 (setting [4]), greater than 250 nM.

As to `CNC(=O)c1ccc(C#Cc2nccc3cnc(Nc4ccc(S(C)(=O)=O)cc4)cc23)cc1` [Ex 634, N-methyl-4-((7-((4-(methylsulfonyl)phenyl)amino)-2,6-naphthyridin-1-yl)ethynyl)benzamide], the IC50 at CDK2/CCNE1 (setting [1]) is less than 25 nM; at CDK4/CCND3 (setting [2]) it was greater than 250 nM; on CDK6/CCND1 (setting [3]), greater than 250 nM; at CDK1/CCNB1 (setting [4]), greater than 250 nM.

As to `CS(=O)(=O)c1ccc(Nc2cc3c(C#Cc4cnn(C5CC5)c4)nccc3cn2)cc1` [Ex 635, 5-((1-cyclopropyl-1H-pyrazol-4-yl)ethynyl)-N-(4-(methylsulfonyl)phenyl)-2,6-naphthyridin-3-amine], the IC50 on CDK2/CCNE1 (setting [5]) is 25 to 250 nM; at CDK4/CCND3 (setting [2]) it was greater than 250 nM; at CDK6/CCND1 (setting [3]), greater than 250 nM; at CDK1/CCNB1 (setting [4]), greater than 250 nM.

Consider `CS(=O)(=O)c1ccc(Nc2cc3c(C#Cc4ccc(OC(F)F)cc4)nccc3cn2)cc1` [Ex 636, 5-((4-(difluoromethoxy)phenyl)ethynyl)-N-(4-(methylsulfonyl)phenyl)-2,6-naphthyridin-3-amine], for which the IC50 at CDK2/CCNE1 (setting [5]) is 25 to 250 nM; on CDK4/CCND3 (setting [2]), greater than 250 nM; on CDK6/CCND1 (setting [3]), greater than 250 nM; at CDK1/CCNB1 (setting [4]) it was greater than 250 nM.

As for `Cn1nccc1C#Cc1nccc2cnc(Nc3ccc(S(C)(=O)=O)cc3)cc12` [Ex 637, 5-((1-methyl-1H-pyrazol-5-yl)ethynyl)-N-(4-(methylsulfonyl)phenyl)-2,6-naphthyridin-3-amine], the IC50 on CDK2/CCNE1 (setting [1]) was less than 25 nM; on CDK4/CCND3 (setting [2]) it was greater than 250 nM; on CDK6/CCND1 (setting [3]), greater than 250 nM; on CDK1/CCNB1 (setting [4]) it was greater than 250 nM.

As for `CS(=O)(=O)c1ccc(Nc2cc3c(C#Cc4ccc5cn[nH]c5c4)nccc3cn2)cc1` [Ex 638, 5-((1H-indazol-6-yl)ethynyl)-N-(4-(methylsulfonyl)phenyl)-2,6-naphthyridin-3-amine], the IC50 on CDK2/CCNE1 (setting [1]) is less than 25 nM; at CDK4/CCND3 (setting [6]), 25 to 250 nM; on CDK6/CCND1 (setting [3]) it was greater than 250 nM; at CDK1/CCNB1 (setting [4]), greater than 250 nM.

Consider `CS(=O)(=O)c1ccc(Nc2cc3c(-c4ccc5nn(CCO)cc5c4)nccc3cn2)cc1` [Ex 639, 2-(5-(7-((4-(methylsulfonyl)phenyl)amino)-2,6-naphthyridin-1-yl)-2H-indazol-2-yl)ethan-1-ol], for which the IC50 was 25 to 250 nM at CDK2/CCNE1 (setting [5]), greater than 250 nM on CDK4/CCND3 (setting [2]), greater than 250 nM at CDK6/CCND1 (setting [3]) and greater than 250 nM at CDK1/CCNB1 (setting [4]).

For the compound `CNC(=O)Cn1ncc2c(C)c(-c3nccc4cnc(Nc5ccc(S(C)(=O)=O)cc5)cc34)ccc21` [Ex 640, N-methyl-2-(4-methyl-5-(7-((4-(methylsulfonyl)phenyl)amino)-2,6-naphthyridin-1-yl)-1H-indazol-1-yl)acetamide], the IC50 is less than 25 nM at CDK2/CCNE1 (setting [1]); 25 to 250 nM on CDK4/CCND3 (setting [6]); 25 to 250 nM on CDK6/CCND1 (x = IC50 25-250 nM, read-out: CDK6/CCND IC50 (25-250 nM)); 25 to 250 nM on CDK1/CCNB1 (x = IC50 25-250 nM, read-out: CDK1/CCNB IC50 (25-250 nM)).

For the compound `Cc1c(C#N)ccc(C#Cc2nccc3cnc(Nc4ccc(S(C)(=O)=O)cc4)cc23)c1C` [Ex 643, 2,3-dimethyl-4-((7-((4-(methylsulfonyl)phenyl)amino)-2,6-naphthyridin-1-yl)ethynyl)benzonitrile], the IC50 at CDK2/CCNE1 (setting [5]) was 25 to 250 nM; on CDK4/CCND3 (setting [2]) it was greater than 250 nM; on CDK6/CCND1 (setting [3]), greater than 250 nM; on CDK1/CCNB1 (setting [4]), greater than 250 nM.

As for `CN1Cc2cc(-c3nccc4cnc(Nc5ccc(S(C)(=O)=O)cc5)cc34)ccc2CC1=O` [Ex 644, 2-methyl-7-(7-((4-(methylsulfonyl)phenyl)amino)-2,6-naphthyridin-1-yl)-1,4-dihydroisoquinolin-3(2H)-one], the IC50 at CDK2/CCNE1 (setting [5]) was 25 to 250 nM; on CDK4/CCND3 (setting [2]), greater than 250 nM; on CDK6/CCND1 (setting [3]), greater than 250 nM; at CDK1/CCNB1 (setting [4]), greater than 250 nM.

As to `CS(=O)(=O)c1ccc(Nc2cc3c(C#Cc4ccc5[nH]ncc5c4)nccc3cn2)cc1` [Ex 645, 5-((1H-indazol-5-yl)ethynyl)-N-(4-(methylsulfonyl)phenyl)-2,6-naphthyridin-3-amine], the IC50 was 25 to 250 nM on CDK2/CCNE1 (setting [5]), greater than 250 nM on CDK4/CCND3 (setting [2]), greater than 250 nM on CDK6/CCND1 (setting [3]) and greater than 250 nM on CDK1/CCNB1 (setting [4]).

For the compound `COc1ccc(C#Cc2nccc3cnc(Nc4ccc(S(C)(=O)=O)cc4)cc23)cn1` [Ex 646, 5-((6-methoxypyridin-3-yl)ethynyl)-N-(4-(methylsulfonyl)phenyl)-2,6-naphthyridin-3-amine], the IC50 at CDK2/CCNE1 (setting [5]) is 25 to 250 nM; at CDK4/CCND3 (setting [2]) it was greater than 250 nM; at CDK6/CCND1 (setting [3]), greater than 250 nM; on CDK1/CCNB1 (setting [4]), greater than 250 nM.

For the compound `CS(=O)(=O)c1ccc(Nc2cc3c(C#Cc4ccc(C#N)cc4C(F)(F)F)nccc3cn2)cc1` [Ex 647, 4-((7-((4-(methylsulfonyl)phenyl)amino)-2,6-naphthyridin-1-yl)ethynyl)-3-(trifluoromethyl)benzonitrile], the IC50 at CDK2/CCNE1 (setting [1]) is less than 25 nM; at CDK4/CCND3 (setting [2]), greater than 250 nM; on CDK6/CCND1 (setting [3]), greater than 250 nM; on CDK1/CCNB1 (setting [4]), greater than 250 nM.
